Assay results reported in patent US6620828B2, “Thiazole compounds and pharmaceutical compositions for inhibiting protein kinases and methods for their use” (Agouron Pharmaceuticals, Inc., priority 1999, dated 2003).

What was measured:
Assay type in all cases: biochemical
[1] = biological target: T1, CDK4/Cyclin D3 complex (Homo sapiens, UniProt P11802); test: CDK4/Cyclin D assay; settings: 1.0 μM; combinatorial library compounds
T1 construct: made in house; host or cells: insect cells co-infected with baculovirus vectors
T1 sequence (P11802 whole entry): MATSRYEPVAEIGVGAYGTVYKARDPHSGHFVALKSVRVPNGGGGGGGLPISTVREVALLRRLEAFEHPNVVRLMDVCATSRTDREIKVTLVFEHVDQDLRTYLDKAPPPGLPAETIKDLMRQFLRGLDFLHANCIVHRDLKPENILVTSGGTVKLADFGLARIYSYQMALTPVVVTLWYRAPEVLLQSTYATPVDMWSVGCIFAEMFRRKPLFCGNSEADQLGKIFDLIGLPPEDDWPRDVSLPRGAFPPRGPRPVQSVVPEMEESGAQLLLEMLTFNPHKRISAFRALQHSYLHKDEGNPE
T1 sequence (P30281 whole entry partner): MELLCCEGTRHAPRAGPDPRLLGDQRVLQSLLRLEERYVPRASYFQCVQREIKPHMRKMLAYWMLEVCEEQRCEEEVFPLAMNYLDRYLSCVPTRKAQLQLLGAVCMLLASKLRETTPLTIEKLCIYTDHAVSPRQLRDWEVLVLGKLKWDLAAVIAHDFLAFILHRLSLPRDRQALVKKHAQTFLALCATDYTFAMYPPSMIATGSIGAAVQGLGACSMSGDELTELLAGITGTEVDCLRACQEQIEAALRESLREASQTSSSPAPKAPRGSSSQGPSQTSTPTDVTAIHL
Procedure: CDK4/Cyclin D Construct for Assay: A complex of human CDK4 and cyclin D3, or a complex of cyclin DI and a fusion protein of human CDK4 and glutathione-S-transferase (GST-CDK4), was purified using traditional biochemical chromatographic techniques from insect cells that had been co-infected with the corresponding baculovirus expression vectors.
CDK2/Cyclin A and CDK4/Cyclin D Assays
Cyclin-dependent kinase activity was measured by quantifying the enzyme-catalyzed, time-dependent incorporation of radioactive phosphate from [^32P]ATP into a recombinant fragment of the retinoblastoma protein. Unless noted otherwise, assays were performed in 96-well plates in a total volume of 50 μL, in the presence of 10 mM HEPES (N-[2-hydroxyethyl]piperazine-N′-[2-ethanesulfonic acid]) (pH 7.4), 10 mM MgCl2, 25 μM adenosine triphosphate (ATP), 1 mg/mL ovalbumin, 5 μg/mL leupeptin, 1 mM dithiothreitol, 10 mM β-glycerophosphate, 0.1 mM sodium vanadate, 1 mM sodium fluoride, 2.5 mM ethylene glycol-bis(β-aminoethyl ether)-N,N,N′N′-tetraacetic acid (EGTA), 2% (v/v) dimethylsulfoxide, and 0.03-0.2 μCi [^32P]ATP. The substrate (0.3-0.5 μg) was purified recombinant retinoblastoma protein fragment (Rb) (residues 386-928 of the native retinoblastoma protein; 62.3 kDa, containing the majority of the phosphorylation sites found in the native 106-kDa protein, as well as a tag of six histidine residues for ease of purification). Reactions were initiated with CDK2 (150 nM CDK2/Cyclin A complex) or CDK4 (50 nM CDK4/Cyclin D3 complex), incubated at 30° C., and terminated after 20 minutes by the addition of ethylenediaminetetraacetic acid EDTA) to 250 mM. The phosphorylated substrate was then captured on a nitrocellulose membrane using a 96-well filtration manifold, and unincorporated radioactivity was removed by repeated washing with 0.85% phosphoric acid. Radioactivity was quantified by exposing the dried nitrocellulose membranes to a phosphorimager. Apparent Ki values were measured by assaying enzyme activity in the presence of different compound concentrations and subtracting the background radioactivity measured in the absence of enzyme. The kinetic parameters (kcat, Km for ATP) were measured for each enzyme under the usual assay conditions by determining the dependence of initial rates on ATP concentration. The data were fit to an equation for competitive inhibition using Kaleidagraph (Synergy Software), or were fit to an equation for competitive tight-binding inhibition using the software KineTic (BioKin, Ltd.). Measured Ki values for known inhibitors against CDK4 and CDK2 agreed with published IC50 values. The specific activity of CDK4 was the same whether complexed to full-length cyclin D3 or the truncated Cyclin D3 construct; both complexes also yielded very similar Ki values for selected inhibitors.

[2] = biological target: T2, phosphorylated VEGF-R2Δ50 (FLVK-P) (Homo sapiens, UniProt P35968, DEL940-989/E990V); test: VEGF-R2 coupled spectrophotometric (FLVK-P) assay; settings: read-out: VEGF % inhibition at 20 μM, 20 μM; combinatorial library compounds
T2 construct: VEGF-R2Δ50 contains residues 806-939 and 990-1171; made in house; host or cells: baculovirus/insect cells
T2 sequence (P35968 with tags, fused parts or gaps DEL940-989/E990V limits assumed): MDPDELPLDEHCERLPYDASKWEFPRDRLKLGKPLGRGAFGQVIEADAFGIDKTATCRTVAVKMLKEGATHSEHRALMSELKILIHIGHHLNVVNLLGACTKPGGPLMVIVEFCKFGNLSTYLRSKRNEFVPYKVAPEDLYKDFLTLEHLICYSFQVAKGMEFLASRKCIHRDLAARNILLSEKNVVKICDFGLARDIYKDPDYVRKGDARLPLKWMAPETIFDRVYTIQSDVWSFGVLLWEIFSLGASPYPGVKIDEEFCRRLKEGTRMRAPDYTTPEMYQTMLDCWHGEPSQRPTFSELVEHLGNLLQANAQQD
Outline: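 Baculovirus-expressed human VEGF-R2Δ50 (residues 806-939/990-1171, E990V) was autophosphorylated with 3 mM ATP, 40 mM MgCl2 for 2 h at 4° C. ADP formation was coupled via PK/LDH to NADH oxidation, read at 340 nm, with 5.1 mM poly(E4Y1), 1 mM ATP, 25 mM MgCl2, Hepes pH 7.5. Ki came from activity across compound concentrations.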

[3] = biological target: T3, FL-CHK1 (Homo sapiens, UniProt O14757); test: CHK1 assay; settings: 20 μM; combinatorial library compounds
T3 construct: C-terminally His-tagged full-length human CHK1 (FL-CHK1); 6xHis (C); made in house; host or cells: baculovirus/insect cells
T3 sequence (O14757 1-476): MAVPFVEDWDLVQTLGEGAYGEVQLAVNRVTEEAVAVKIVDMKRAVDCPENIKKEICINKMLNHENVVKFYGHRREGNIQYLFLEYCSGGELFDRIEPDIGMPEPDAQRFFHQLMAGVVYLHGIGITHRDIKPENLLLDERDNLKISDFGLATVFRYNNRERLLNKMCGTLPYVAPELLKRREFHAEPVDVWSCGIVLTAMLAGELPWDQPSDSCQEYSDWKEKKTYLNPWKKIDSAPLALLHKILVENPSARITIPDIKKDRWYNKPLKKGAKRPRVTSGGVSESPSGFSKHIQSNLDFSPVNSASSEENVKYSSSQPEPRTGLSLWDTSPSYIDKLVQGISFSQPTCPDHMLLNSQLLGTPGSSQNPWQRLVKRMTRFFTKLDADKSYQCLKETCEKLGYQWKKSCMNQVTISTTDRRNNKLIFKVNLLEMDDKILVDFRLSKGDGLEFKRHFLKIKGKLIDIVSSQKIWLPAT
Outline: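 Full-length human CHK1 with C-terminal 6×His tag, made in baculovirus/insect cells, 10 nM, phosphorylating 0.125 mM Syntide-2 with 0.15 mM ATP in 50 mM Tris pH 7.5, 25 mM MgCl2, 400 mM NaCl. PK/LDH-coupled NADH oxidation read at 340 nm. Ki from initial rates over varied compound concentrations.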

[4] = biological target: CDK2/Cyclin A complex (Homo sapiens, UniProt P24941); test: CDK2/Cyclin A assay; settings: 1.0 μM; combinatorial library compounds
Outline: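 Radiometric assay: 150 nM CDK2/cyclin A (insect-cell CDK2, truncated cyclin A) phosphorylates His-tagged Rb fragment (residues 386-928) with 25 μM ATP plus [32P]ATP, pH 7.4 HEPES, 2% DMSO, 30 °C for 20 min. Filter-captured product counted by phosphorimager; apparent Ki from competitive or tight-binding inhibition fits.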

SMILES | inhibition at 1 µM [1] [%] | inhibition at 20 µM [2] [%] | inhibition at 20 µM [3] [%] | inhibition at 1 µM [4] [%]
Nc1nc(Nc2ccc(S(N)(=O)=O)cc2)sc1-c1nc(-c2ccc(-c3ccc(Cl)cc3Cl)o2)cs1 | 25 | -2 | 3.3 | 21.4
COc1ccc(-c2csc(-c3sc(Nc4ccc(S(N)(=O)=O)cc4)nc3N)n2)c(OC)c1 | -1.2 | 3 | -3.9 | 12.5
COc1ccc(OC)c(-c2csc(-c3sc(Nc4ccc(S(N)(=O)=O)cc4)nc3N)n2)c1 | 41.2 | 8 | -2.3 | 28.4
CCOC(=O)c1cc(-c2csc(-c3sc(Nc4ccc(S(N)(=O)=O)cc4)nc3N)n2)on1 | -13 | 3 | 1.1 | 29.8
Cc1onc(-c2ccccc2)c1-c1csc(-c2sc(Nc3ccc(S(N)(=O)=O)cc3)nc2N)n1 | -3.9 | -2 | 2.9 | -4.5
Nc1nc(Nc2ccc(S(N)(=O)=O)cc2)sc1-c1nc(-c2ccc3c(c2)OCCO3)cs1 | 31.8 | 29 | 20.1 | 21.4
Nc1nc(Nc2ccc(S(N)(=O)=O)cc2)sc1-c1nc(-c2ccc(OC(=O)c3ccccc3)cc2)cs1 | -27 | 8 | 4.4 | 20.7
Nc1nc(Nc2ccc(S(N)(=O)=O)cc2)sc1-c1nc(C2C=C([N+](=O)[O-])C=CC2)cs1 (centres unmarked) | -28.6 | 30 | 10.8 | 17.8
Cc1cc(-c2csc(-c3sc(Nc4ccc(S(N)(=O)=O)cc4)nc3N)n2)cc(C)c1O | 46 | 25 | 13.4 | 40.7
Nc1nc(Nc2ccc(S(N)(=O)=O)cc2)sc1-c1nc(-c2c(Cl)c(Cl)nc(Cl)c2Cl)cs1 | 58 | 11 | 19.8 | 66.8
Nc1nc(Nc2ccc(S(N)(=O)=O)cc2)sc1-c1nc(-c2ccc(CC(=O)O)s2)cs1 | 65 | 11 | 11.3 | 51.6
Nc1nc(Nc2ccc(S(N)(=O)=O)cc2)sc1-c1nc(-c2cccc(OC(=O)c3ccccc3)c2)cs1 | -1.9 | 43 | 6.8 | 37.2
COc1cc(OC)c(-c2csc(-c3sc(Nc4ccc(S(N)(=O)=O)cc4)nc3N)n2)c(O)c1Cl | 62.5 | 29 | 25.6 | 69.5
Nc1nc(Nc2ccc(S(N)(=O)=O)cc2)sc1-c1nc(-c2ccc3oc4ccccc4c3c2)cs1 | 57.5 | 18 | 18.3 | 45.7
Cn1cc(-c2csc(-c3sc(Nc4ccc(S(N)(=O)=O)cc4)nc3N)n2)cc1C(=O)C(Cl)(Cl)Cl | 14 | -4 | 3.3 | 23.2
Nc1nc(Nc2ccc(S(N)(=O)=O)cc2)sc1-c1nc(-c2cc3cc(Cl)ccc3o2)cs1 | -15 | -4 | 13.6 | 16.6

Further lines, results first:

inhibition at 1 µM [1] [%] | inhibition at 20 µM [2] [%] | inhibition at 20 µM [3] [%] | inhibition at 1 µM [4] [%] | SMILES
57.2 | 49 | 28.5 | 55.9 | Nc1nc(Nc2ccc(S(N)(=O)=O)cc2)sc1-c1nc(-c2ccc(O)c(O)c2)cs1
-8.9 | 12 | 7.8 | 25.5 | Nc1nc(Nc2ccc(S(N)(=O)=O)cc2)sc1-c1nc(-c2ccc3ccccc3c2)cs1
-28.2 | -2 | 13.1 | 17.6 | Nc1nc(Nc2ccc(S(N)(=O)=O)cc2)sc1-c1nc(-c2ccc(Cl)c([N+](=O)[O-])c2)cs1
10.9 | 27 | 4.4 | 18.5 | Nc1nc(Nc2ccc(S(N)(=O)=O)cc2)sc1-c1nc(-c2ccc(Cl)cc2)cs1
57.8 | 47 | 25.6 | 55.4 | Nc1nc(Nc2ccc(S(N)(=O)=O)cc2)sc1-c1nc(-c2ccccc2[N+](=O)[O-])cs1
-16.3 | 3 | 11 | 27.7 | Nc1nc(Nc2ccc(S(N)(=O)=O)cc2)sc1-c1nc(-c2ccc([N+](=O)[O-])cc2)cs1
-28 | 2 | 15.9 | 8.3 | Cc1cc(-c2csc(-c3sc(Nc4ccc(S(N)(=O)=O)cc4)nc3N)n2)ccc1Cl
16.3 | 13 | 3.7 | 13.3 | N#Cc1ccc(-c2nc(-c3sc(Nc4ccc(S(N)(=O)=O)cc4)nc3N)cs2)cc1
39.7 | 13 | 13.6 | 14.6 | Nc1nc(Nc2ccc(S(N)(=O)=O)cc2)sc1-c1nc(-c2ccc[nH]2)cs1
-5.3 | 38 | 17.5 | 12.4 | Nc1nc(Nc2ccc(S(N)(=O)=O)cc2)sc1-c1nc(-c2ccc(F)c(F)c2)cs1
-3.1 | 9 | 11.7 | 1.3 | Nc1nc(Nc2ccc(S(N)(=O)=O)cc2)sc1-c1nc(-c2ccc(Cl)c(Cl)c2)cs1
-13.5 | 50 | 0.2 | 19.6 | Cc1ccc(-c2csc(-c3sc(Nc4ccc(S(N)(=O)=O)cc4)nc3N)n2)c(C)c1
-0.3 | 15 | 16.4 | 17.6 | Nc1nc(Nc2ccc(S(N)(=O)=O)cc2)sc1-c1nc(-c2cccc(Br)c2)cs1
